PMC12040169 (PLOS Biology, 2025)

Experiment: in vitro
Conditions: human, hela cells, % viability

SMILES	viability at 28.5 h, 10 µM [%]
Cc1nnc(-c2cccc(S(=O)(=O)n3ccn(-c4cccc(C(F)(F)F)c4)c3=O)c2)o1 [CBK106592]	91.9
COc1ccc(-c2cc(C(=O)Nc3cnc4ccccc4c3)cnc2-c2cccc(C)c2)cn1 [CBK037425]	89.8
COc1ccc2[nH]c(SCC(=O)O)nc2c1 [CBK091620]	91
C[C@H](c1ccccc1)n1c(=O)[nH]c2ncc(-c3cccc4cccnc34)nc21 [CBK064237]	44.4
NC1CCN(c2nccnc2OCCOc2cccnc2)CC1 [CBK003889F]	82.3
Cc1cn([C@H]2C[C@@H](O)[C@@H](CN)O2)c(=O)[nH]c1=O [CBK201315]	96.2
CCCC(C)c1cn(CCc2cc(O)nc(C)n2)nn1 (stereo not drawn) [CBK306871]	93.8
O=C(c1nccs1)C1CCN(C(=O)Cc2cccc(F)c2)CC1 [CBK284208]	94.6
CCc1cc2c(=O)c(-c3nc4ccccc4n3C)c(C)oc2c(CN2CCOCC2)c1O [CBK262124]	94.1
O=[N+]([O-])c1ccc(-c2csc(Nc3ccc4c(c3)OCO4)n2)cc1 [CBK262448B]	100
CCCC/C=C/c1cncc(N[C@@H](C)c2ccccc2)n1 [CBK065472]	109
COc1ccc2[nH]c3c(c2c1)CCN(CC(C)O)C31CCN(CCOc2ccccc2)C1 (stereo not drawn) [CBK084612T]	73
COc1cccc2cc(C(=O)C3=C(O)C(=O)N(CCCN4CCOCC4)C3c3ccc(C)cc3)oc12 (stereo not drawn) [CBK266420]	106
CC(=O)NCCNC(=O)c1cc(-c2cccc(S(C)(=O)=O)c2)cnc1NCC1CC1 [CBK076351]	93.9
CCc1c(C)nc2c(C(=O)NCCSC)cnn2c1C [CBK162147]	97.2
Cn1c(CNC(=O)c2ccc(Cl)cc2)nnc1SCC(=O)c1ccc(Br)cc1 [CBK266145]	88.4
CC(C)CC(C(=O)Nc1ccc(Br)cc1)N1C(=O)c2ccccc2C1=O (stereo not drawn) [CBK264253]	94.1
O=C(COc1ccc(S(=O)(=O)NC2CCCCC2)cc1)Nc1ccc2c(c1)OCO2 [CBK265960]	84.5
COc1ccc(OC)c(NC(=O)CSc2nnc(-c3ccncc3)s2)c1 [CBK269209]	97.2
CCC1(CC)OC(N[C@@H](C)c2ccccc2C(F)(F)F)=NC1=O [CBK122691]	91.2
O=C1c2cccc3cccc(c23)C(=O)N1CC1CCN(CC(O)COCc2ccccc2)CC1 (stereo not drawn) [CBK074407C]	84.4
COc1cccc(CN2CCCC(NC(=O)c3cn4ccsc4n3)C2)c1 (stereo not drawn) [CBK307204]	81.1

SMILES	viability at 28.5 h, 10 µM [%]
O=C(NCc1nnc(-c2cccs2)o1)C1(c2ccccc2F)CC1 [CBK284637]	83.2
COc1ccc2cc3c(nc2c1)Sc1nncn1N=C3 [CBK021248]	100
O=C(COC(=O)c1ccncc1)c1ccc(OC(=O)c2ccccc2)cc1 [CBK265169]	87.3
O=C(CCc1nc2ccccc2[nH]1)Nc1ccc(F)cc1 [CBK267238]	95.5
Cc1cc(C(=O)N2CCc3c(sc4ncnc(N)c34)C2)on1 [CBK306067]	85.1
O=C1CSC2(C(=O)Nc3ccccc32)N1c1ccc2ccccc2c1 (stereo not drawn) [CBK093461]	106
COc1cccc(-c2nccnc2C2CCCN(S(=O)(=O)c3ccc(F)cc3)C2)c1 (stereo not drawn) [CBK286138]	108
CCNC(=O)[C@H]1CN(Cc2ccccc2)C[C@@H]1C(=O)c1ccccc1 [CBK285265]	88.1
Cc1cccc(CCN2CCC3(CC2)NCCc2c3[nH]c3ccc(Br)cc23)c1 [CBK039280]	83.3
Cc1ccc(-n2nnnc2SCC(=O)O)cc1 [CBK287048]	94.1
Cc1sc2nc(C(C)C)n(C3CCNCC3)c(=O)c2c1C [CBK282407]	100
CS(=O)(=O)c1ccc(-c2nccnc2N2CCN(c3ccncc3)CC2)cc1 [CBK036924]	98.5
COc1cc(-c2cncc(N3CCC(C(=O)O)CC3)n2)cc(OC)c1OC [CBK037973]	100
Cc1ccc(NC2CC(C)N(C(=O)c3cccc([N+](=O)[O-])c3)c3ccc(C)cc32)cc1 (stereo not drawn) [CBK293929]	86.5
CC(C)(C)NC(=O)C1C2CCC3(CC(=O)c4cc(Cl)ccc4O3)C21 (stereo not drawn) [CBK284963]	109
C=CCNC(=O)CSc1nc2sc(C)c(C)c2c(=O)[nH]1 [CBK287350]	88.2
O=C(O)CCc1ccc(-c2cccs2)n1NC(=O)c1sc2ccccc2c1Cl [CBK264782]	96.1
Clc1ccccc1-c1nccnc1NCCc1c[nH]c2ccccc12 [CBK037337]	106
CC(C)(O)C#Cc1ccc(C(=O)N2CCN(C/C=C/c3ccccc3)CC2)s1 [CBK267007]	99.5
COc1ccccc1C1OC(=O)CC1C(=O)N1CCN(c2ccc(Cl)cc2)CC1 (stereo not drawn) [CBK091332]	86.2
O=C(NC1CCS(=O)(=O)C1)c1cnc2c(OC(F)(F)F)cccc2c1O (stereo not drawn) [CBK304323]	99.7
Cc1nn(CC(=O)N(C)C(C)c2ccncn2)c(=O)c2ccccc12 (stereo not drawn) [CBK307669]	89

SMILES	viability at 28.5 h, 10 µM [%]
CN(C(=O)C1CC1)c1nc2c(s1)CCc1c-2cnn1C [CBK281927]	75.7
COc1ccc(-c2cn3cccnc3n2)cc1NC(=O)c1ccccc1 [CBK287296]	73.8
COc1ccccc1Cn1ncc2c1CCCC2NC(=O)C1CCC1 (stereo not drawn) [CBK282895]	110
CCNC(=O)c1ccc(-n2cccn2)c(C#Cc2cccnc2)c1 [CBK283150]	105
COCc1cc(C[C@H]2CNCC[C@H]2CC(=O)N2CCc3ccccc3C2)no1 [CBK289144]	88.4
O=C(N[C@@H](Cn1cc(Cl)c(=O)[nH]c1=O)C(=O)O)C1CCC1 [CBK289659]	89.2
CC1=C[C@@H](CNS(=O)(=O)c2ccccc2)[C@H](C(C)C)C[C@H]1CC(=O)N1CCCC1 [CBK289054]	122
O=C(O)CNCCC(=O)c1ccc([N+](=O)[O-])cc1 [CBK020544]	87
O=C1N=C(NC2CCCCCC2)SC1CCNC(=O)N1CCOCC1 (stereo not drawn) [CBK067687]	110
O=C(Nc1cc(F)ccc1N1CCCC1)c1ccc(=O)n(CC(=O)N2CCCCC2)c1 [CBK286083]	97.7
CC(C)Nc1nc2ccccc2nc1OCCCN(C)C [CBK113416]	108
CN(Cc1ccccc1)CC(O)c1ccc2c(c1)CCCN2C(=O)c1ccccc1F (stereo not drawn) [CBK286278]	88.2
CCN(CC(C)C#N)C(=O)c1cc2ccccc2oc1=O (stereo not drawn) [CBK305992]	87.8
Cc1ccc(S(=O)(=O)N2CCN(CC(O)COc3ccc4ccccc4c3)CC2)cc1 (stereo not drawn) [CBK266239]	97.7
Cc1cc2nc(SCCNC(=O)c3ccc(Cl)cc3)nc(C)c2cc1C [CBK266223]	93.3
Cc1cc(C)c(NC(=O)CSc2nnc(Cc3ccccc3)n2C)c(C)c1 [CBK265990]	110
O=C(CC(Nc1ccccc1Cl)C(=O)O)c1ccccc1 (stereo not drawn) [CBK265386]	81.1
CN(C)CCN(Cc1ccccc1)Cc1c(F)cccc1Cl [CBK261867]	112
Cc1ccc(CN(CCCN(C)C)Cc2cccc(O)c2)o1 [CBK283173]	108
Cn1ccnc1CN(Cc1ccccc1)C1CC(C)(C)NC(C)(C)C1 [CBK283177]	93.2
CN1CCCCC[C@@H]2[C@@H]1[C@H](c1ccccc1)CN2C(=O)CN1CCCCCC1=O [CBK285524]	87.5
O=C(O)c1ccc(NC(=O)c2ccccc2F)c(NC(=O)c2ccccc2F)c1 [CBK275363]	101

SMILES	viability at 28.5 h, 10 µM [%]
CC(C)(CO)CNc1cncc(-c2cc3ccccc3o2)n1 [CBK066029]	91.1
Nc1nc2ccc(-c3nc4ccccc4o3)cc2s1 [CBK287846]	57.4
COc1ccc(-c2cc(=O)n3cc[nH]c3n2)cc1 [CBK006659]	87.6
C[C@H](Nc1cncc(-c2cccc3ccccc23)n1)c1ccccc1 [CBK065654]	93.6
O=C(NCCC1=CCCCC1)c1cnc2n(c1=O)CCS2 [CBK287373]	89.8
O=C1NC2(CCN(C(=O)c3cccs3)CC2)Oc2ccccc21 [CBK283998]	87.3
CCc1nc2c(OCc3ccccc3)cccn2c1N(C)C(=O)Nc1ccccc1OC [CBK147890]	98.7
c1ccc(-c2ccno2)c(OCc2ccc(-c3nccnc3-c3nnn[nH]3)cc2)c1 [CBK050817]	93.6
CCCC/C=C/c1cncc(NC2CCC(O)CC2)n1 (stereo not drawn) [CBK037840]	105
CCOC(=O)c1c(NC(=O)c2cccnc2)sc2c1CCCC2 [CBK304574]	101
C1=CCC(CN(CCCn2ccnc2)Cc2cccnc2)CC1 (stereo not drawn) [CBK283216]	88.6
Cc1ccc(S(=O)(=O)N(CCO)CC(O)Cn2c3ccc(Cl)cc3c3cc(Cl)ccc32)cc1 (stereo not drawn) [CBK263392]	97.6
COCc1cn(C[C@H]2CC3CCN2C[C@@H]3C(=O)NC2CC2)nn1 (stereo partly drawn) [CBK288835]	98.6
CCc1nccn1C(C)C(=O)Nc1ccc2ncn(C)c2c1 (stereo not drawn) [CBK281745]	107
CCOC(=O)N/N=C(/C)c1ccc(Br)s1 [CBK019480]	93.5
COc1ccc(CCNC(=O)N2CCN(c3ccccc3)CC2)cc1 [CBK155199]	96.8
O=[N+]([O-])c1cccc(-c2nc(-c3ccccc3)c(-c3ccc4oc5ccc(-c6[nH]c(-c7cccc([N+](=O)[O-])c7)nc6-c6ccccc6)cc5c4c3)[nH]2)c1 [CBK261433]	87.5
Cc1cc(CNC(=O)COc2ccc(C#N)cc2)c2ccccc2n1 [CBK270129]	87.6
CC(=O)c1ccc(NS(=O)(=O)c2cc(C(=O)Nc3ccccc3C(=O)O)ccc2Br)cc1 [CBK263203]	97.2
C[C@@H]1CN(C(=O)OCc2nccn2C)C[C@H](C)O1 [CBK200142]	103
O=C(NCCO)c1cccc(-c2cncc(N3CCN(Cc4ccccn4)CC3)n2)c1 [CBK065784]	90.1
